Consider ten compounds from ChEMBL document CHEMBL5120842, “Application of partially aromatic ortho-quionone-methides for the synthesis of novel naphthoxazines with improved antibacterial activity” (2022).

Common to all, as to assay type: functional
The subject of test [1] is Staphylococcus aureus. Nature of the test: Inhibition of efflux pump in Gram-positive methicillin and oxacillin-resistant Staphylococcus aureus ATCC 43300 assessed as relative fluorescence index using ethidium bromide as substrate at 50 uM and measured after 1 hr by fluorescence based microtiter plate reader analysis.
Test [2] deals with Staphylococcus aureus. Nature of the test: Inhibition of efflux pump in Gram-positive methicillin-susceptible Staphylococcus aureus ATCC 25923 assessed as relative fluorescence index using ethidium bromide as substrate at 100 uM and measured after 1 hr by fluorescence based microtiter plate reader analysis.
Test [3] concerns Escherichia coli. Kind of test: Inhibition of efflux pump in Gram-negative Escherichia coli K-12 AG100 expressing AcrAB-TolC efflux pump assessed as relative fluorescence index using ethidium bromide as substrate at 100 uM and measured after 1 hr by fluorescence based microtiter plate reader analysis.
Test [4] relates to Staphylococcus aureus. Kind of test: Antibacterial activity against Gram-positive methicillin-susceptible Staphylococcus aureus ATCC 25923 assessed as inhibition of efflux pump by measuring intracellular accumulation of ethidium bromide at 50 uM and measured every minute for 1 hr by fluorescence based microtiter plate reader analysis.
Test [5] concerns Staphylococcus aureus. Nature of the test: Antibacterial activity against Gram-positive methicillin and oxacillin-resistant Staphylococcus aureus ATCC 43300 assessed as inhibition of bacterial growth by CLSI protocol based assay.
Test [6] concerns Staphylococcus aureus. Kind of test: Antibacterial activity against Gram-positive methicillin and oxacillin-resistant Staphylococcus aureus ATCC 43300 assessed as inhibition of efflux pump by measuring intracellular accumulation of ethidium bromide at 50 uM and measured every minute for 1 hr by fluorescence based microtiter plate reader analysis.
Test [7] relates to Escherichia coli. Nature of the test: Antibacterial activity against Gram-negative Escherichia coli K-12 AG100 expressing AcrAB-TolC efflux pump assessed as inhibition of efflux pump by measuring intracellular accumulation of ethidium bromide at 50 uM and measured every minute for 1 hr by fluorescence based microtiter plate reader analysis.
Test [8] deals with Escherichia coli. Nature of the test: Antibacterial activity against Gram-negative Escherichia coli K-12 AG100 expressing AcrAB-TolC efflux pump assessed as inhibition of bacterial growth by CLSI protocol based assay.
The subject of test [9] is Escherichia coli. Nature of the test: Antibacterial activity against Gram-negative Escherichia coli K-12 AG100 expressing AcrAB-TolC efflux pump assessed as inhibition of efflux pump by measuring intracellular accumulation of ethidium bromide at 100 uM and measured every minute for 1 hr by fluorescence based microtiter plate reader analysis.
For test [10], the system named is Escherichia coli. Kind of test: Inhibition of efflux pump in Gram-negative Escherichia coli K-12 AG100 expressing AcrAB-TolC efflux pump assessed as relative fluorescence index using ethidium bromide as substrate at 50 uM and measured after 1 hr by fluorescence based microtiter plate reader analysis.
For test [11], the system named is Staphylococcus aureus. Kind of test: Inhibition of efflux pump in Gram-positive methicillin-susceptible Staphylococcus aureus ATCC 25923 assessed as relative fluorescence index using ethidium bromide as substrate at 50 uM and measured after 1 hr by fluorescence based microtiter plate reader analysis.
Test [12] deals with Staphylococcus aureus. Nature of the test: Antibacterial activity against Gram-positive methicillin and oxacillin-resistant Staphylococcus aureus ATCC 43300 assessed as inhibition of efflux pump by measuring intracellular accumulation of ethidium bromide at 100 uM and measured every minute for 1 hr by fluorescence based microtiter plate reader analysis.
The test system of test [13] is Staphylococcus aureus. Kind of test: Antibacterial activity against Gram-positive methicillin-susceptible Staphylococcus aureus ATCC 25923 assessed as inhibition of efflux pump by measuring intracellular accumulation of ethidium bromide at 100 uM and measured every minute for 1 hr by fluorescence based microtiter plate reader analysis.
Test [14] relates to Staphylococcus aureus. Kind of test: Antibacterial activity against Gram-positive methicillin-susceptible Staphylococcus aureus ATCC 25923 assessed as inhibition of bacterial growth by CLSI protocol based assay.
The test system of test [15] is Staphylococcus aureus. Nature of the test: Inhibition of efflux pump in Gram-positive methicillin and oxacillin-resistant Staphylococcus aureus ATCC 43300 assessed as relative fluorescence index using ethidium bromide as substrate at 100 uM and measured after 1 hr by fluorescence based microtiter plate reader analysis.
In test [16] the test system is Staphylococcus aureus. Kind of test: Antibacterial activity against Gram-positive methicillin-susceptible Staphylococcus aureus ATCC 25923 assessed as inhibition of efflux pump by measuring intracellular accumulation of ethidium bromide at 3.125 uM and measured every minute for 1 hr by fluorescence based microtiter plate reader analysis.
The test system of test [17] is Staphylococcus aureus. Kind of test: Inhibition of efflux pump in Gram-positive methicillin-susceptible Staphylococcus aureus ATCC 25923 assessed as relative fluorescence index using ethidium bromide as substrate at 3.125 uM and measured after 1 hr by fluorescence based microtiter plate reader analysis.
Test [18] relates to Staphylococcus aureus. Nature of the test: Antibacterial activity against Gram-positive methicillin-susceptible Staphylococcus aureus ATCC 25923 assessed as inhibition of efflux pump by measuring intracellular accumulation of ethidium bromide at 25 uM and measured every minute for 1 hr by fluorescence based microtiter plate reader analysis.
Test [19] concerns Staphylococcus aureus. Kind of test: Inhibition of efflux pump in Gram-positive methicillin-susceptible Staphylococcus aureus ATCC 25923 assessed as relative fluorescence index using ethidium bromide as substrate at 25 uM and measured after 1 hr by fluorescence based microtiter plate reader analysis.
The subject of test [20] is Staphylococcus aureus. Nature of the test: Inhibition of efflux pump in Gram-positive methicillin and oxacillin-resistant Staphylococcus aureus ATCC 43300 assessed as relative fluorescence index using ethidium bromide as substrate at 25 uM and measured after 1 hr by fluorescence based microtiter plate reader analysis.
Test [21] relates to Staphylococcus aureus. Kind of test: Antibacterial activity against Gram-positive methicillin and oxacillin-resistant Staphylococcus aureus ATCC 43300 assessed as inhibition of efflux pump by measuring intracellular accumulation of ethidium bromide at 25 uM and measured every minute for 1 hr by fluorescence based microtiter plate reader analysis.

Values after ≈ are worked out from the molar mass of the structure shown.

A word on the MIC: it is the lowest concentration that inhibits growth of the organism. Turning to `CCOC(=O)C(c1ccc2ccccc2c1O)N1CCOCC1` (centres undefined), the Activity was -0.28 in test [1]; -0.72 in test [2]; -0.81 in [3]; 11677.33 in test [4]; 56126.33 in test [6]; 7485.67 in test [7]. Moreover, the Activity is 6561.67 in test [9]; -0.78 in [10]; -0.58 in test [11]; 18886 in test [12]; 7624.33 in test [13]; -0.76 in test [15]. In addition, the MIC in test [5], in test [8] and in test [14] was over 100 µM each time.

On to `CCOC(=O)C(c1c(O)ccc2ccccc12)N1CCOCC1` (centres undefined), for which the Activity came to 0.12 in test [1]; 0.87 in [2]; 0.07 in test [3]; 58168.67 in [4]; 87762.67 in test [6]; 44310 in test [7]. Also, the Activity in test [9] worked out at 36685.33; in test [10] it was 0.29; in [11] it was 1.1; in test [12], 84280; in [13], 51721; in test [15] it was 0.08. The MIC in test [5], in test [8] and in test [14] was over 100 µM in each case.

As to `CCOC(=O)[C@H]1c2c(ccc3ccccc23)O[C@@H]2c3ccsc3CCN21` (relative stereo), the Activity in [1] was found to be 0.13; in test [2], 0.22; in [3], 0.02; in test [4], 29306; in [6], 88184.67; in [7], 34078.33. The Activity is 34921.33 in test [9]; 0 in [10]; 0.06 in test [11]; 88655.67 in test [12]; 33816.67 in test [13]; 0.14 in [15]. The MIC in [5], in [8] and in test [14] was over 100 µM each time.

For `CCOC(=O)[C@H]1c2c(ccc3ccccc23)O[C@@H]2c3ccccc3CCN21` (relative stereo), the Activity in test [1] worked out at 0.19; in test [2] it was 0.13; in test [3] it was 0.07; in [4], 31759; in [6], 92734; in test [7], 35837.67. Moreover, the Activity in test [9] was determined as 36732; in test [10], 0.05; in test [11], 0.15; in test [12], 93822.67; in [13], 31231.67; in test [15] it was 0.2. The minimal inhibitory concentration (MIC) in test [5], in test [8] and in test [14] was over 100 µM throughout.

`CCOC(=O)[C@H]1c2c(ccc3ccccc23)O[C@@H]2c3[nH]c4ccccc4c3CCN21` (relative stereo): the Activity is -0.03 in test [1]; 0.05 in test [2]; 0.06 in [3]; 27892.33 in test [4]; 76072 in test [6]; 34706 in test [7]. The Activity was determined as 36337.67 in [9]; 0.01 in test [10]; 0.01 in test [11]; 78009 in test [12]; 29131.67 in test [13]; 0 in [15]. For the same compound, the MIC in [5], in test [8] and in test [14] was over 100 µM each time.

Regarding `CCOC(=O)[C@H]1c2ccc3ccccc3c2O[C@@H]2c3[nH]c4ccccc4c3CCN21` (relative stereo), the Activity is 0.09 in [1]; -0.06 in test [3]; 84683 in [6]; 33567.67 in [7]; 32220.33 in test [9]; 34824.33 in test [16]. Further, the Activity in [10] is -0.02; in test [12], 90479.33; in test [17] it was 0.26; in test [15], 0.16. The MIC in test [5] is over 100 µM; in test [8] it was over 100 µM; in test [14] it was 6.25 µM (≈ 2.49 µg/mL).

Regarding `CCOC(=O)[C@H]1c2ccc3ccccc3c2O[C@@H]2c3ccsc3CCN21` (relative stereo), the Activity in test [1] came out at 0.3; in test [2], 1.82; in test [3], 0.05; in test [4] it was 36826.67; in test [6], 101450.33; in test [7], 34561.67. Further, the Activity was 35945.67 in test [9]; 0.01 in test [10]; 0.33 in test [11]; 103410 in test [12]; 77859.67 in test [13]; 0.33 in test [15]. In addition, the MIC in test [5], in test [8] and in test [14] was over 100 µM in each case.

Consider `CCOC(=O)[C@H]1c2ccc3ccccc3c2O[C@@H]2c3ccccc3CCN21` (relative stereo), for which the Activity in test [1] was 0.43; in test [2], 0.55; in test [3] it was 0.08; in test [4] it was 44414.33; in test [6] it was 111300.67; in test [7] it was 37156.33. The Activity in [9] was found to be 36999.33; in test [10], 0.09; in test [11], 0.61; in [12] it was 114226; in test [13], 42864; in test [15], 0.46. In addition, the MIC in test [5], in test [8] and in test [14] was over 100 µM in each case.

Take `N#CC(C#N)=NNc1cccc(Cl)c1` [CARBONYL CYANIDE M-CHLOROPHENYLHYDRAZONE]: the Activity is 72448.33 in test [7] and 1.12 in [10].

Turning to `COC(=O)[C@H]1[C@H]2C[C@@H]3c4[nH]c5cc(OC)ccc5c4CCN3C[C@H]2C[C@@H](OC(=O)c2cc(OC)c(OC)c(OC)c2)[C@@H]1OC` [RESERPINE], the Activity in test [18] is 54056; in test [19] it was 0.96; in test [20], 0.3; in [21], 101532.7.
